Data published in US20250325485A1, “STABLE COMPOSITIONS OF FOXY-5 HEXAPEPTIDE WITH HIGH SOLUBILITY” (WNTRESEARCH AB, priority 2021, published 2025).
Converted amounts (≈) assume the structure as drawn. Where two headings read alike, the source gives them in different places. Peptide text beside a SMILES is read from it. * marks the point of attachment. For = O=C*

Assays:
[1] = Stability study at 40° C. for two and four weeks (HPLC purity, appearance); type: physicochemical; conditions: closed containers
Method: A stability study of the compositions according to the first aspect (and the previously prepared trisodium salt) at 40° C. for two and four weeks was performed. Some general trends were found. […] The purity of the tri-salts varied more than the purity of the di-salts (HPLC purity 78-95% at 4 weeks for the tri-salts vs. 87-96% at 4 weeks for the di-salts). Furthermore, as appears from FIG. 6, the absolute purity of the compositions comprising amino acids was generally higher after 4 weeks at 40° C. when compared with compositions comprising other salt formers (value at 4 weeks: ˜90% vs. ˜85% for tri-salts and ˜95% vs. ˜90% for di-salts).
The stability test data for all formed compositions and the starting material itself (Foxy-5 free acid) were measured at 0, 2 and 4 weeks storage @40° C. and included in FIG. 10.
The following parameters for the substance-specific UPLC method were employed for the purity measurements of the stability samples: […]

[2] = cited from earlier work
[3] = pKa by potentiometric titration (Sirius T3); type: physicochemical; conditions: ISA water, 25° C., read-out: pKa [measured]
Method: 2.0.0.0 software. An automated aqueous titration method was used with initial values of 1.0 mg of solid API dissolved in 1.5 mL of ISA water and three sequential titrations on the same sample. In all three titrations, the sample solution was adjusted with 0.5 M KOH to a starting pH of 12 and slowly titrated with 0.5 M HCl to a final pH of 2.
Each titration curve was fit using the SiriusT3Refine Vers. 2.0.0.0 software, and the corresponding pKa values were calculated. […]

[4] = High pH treatment of aqueous Foxy-5 solution tracked by HPLC; type: physicochemical; conditions: after 2 hours at pH=9
Method: After stirring of the Foxy-5 solution for 2 hours at pH 9 (see FIG. 4), the aspartimide peak in the HPLC chromatogram completely disappeared (<LOD). It is known that ring opening of aspartimides occurs at high pH, leading to the formation of either the parent compound and the […] and the D-Asp derivatives. However, significant dimer formation was observed (2.5% after 2 hours at pH=9). The identification of the dimer in the chromatogram was confirmed by co-elution with separately synthesized reference material.

[5] = Solubility / lyophilization concentration of Foxy-5 drug substance (background statements); type: physicochemical; conditions: for solubility: water
Excerpt: The current manufacturing process of Foxy-5 applies a product concentration for the final lyophilization of only 3 g/L due to the limited solubility of the salt free drug substance (DS) in water. This presents a bottleneck which severely limits the production throughput for the commercial manufacture of Foxy-5.
While this achievement is impressive, it nonetheless remains problematic to produce Foxy-5 on commercial scale when the final step requires such a high dilution.
Consequently, an increase of batch size by other solubilizing techniques than solvent polarity adjustments was proposed.

Q: With CSCC[C@H](NC=O)C(=O)N[C@@H](CC(=O)O)C(=O)NCC(=O)N[C@@H](CS)C(=O)N[C@@H](CCC(=O)O)C(=O)N[C@@H](CC(C)C)C(=O)O [NMG-P6] (For-MDGCEL-OH) as the compound, how does the appearance after storage ([1]; 2 weeks at 40° C.) read?
A: sticky, glassy appearance

Q: With CSCC[C@H](NC=O)C(=O)N[C@@H](CC(=O)O)C(=O)NCC(=O)N[C@@H](CS)C(=O)N[C@@H](CCC(=O)O)C(=O)N[C@@H](CC(C)C)C(=O)O [DEA-P1] (For-MDGCEL-OH) as the compound, how does the appearance after storage ([1]; 2 and 4 weeks at 40° C.) read?
A: glassy appearance

Q: With NC(CO)(CO)CO [tromethamine] as the compound, how does the “pKa of the salt-forming base” value [2] read?
A: 8.0

Q: Which results are given for CSCC[C@H](NC=O)C(=O)N[C@@H](CC(=O)O)C(=O)NCC(=O)N[C@@H](CS)C(=O)N[C@@H](CCC(=O)O)C(=O)N[C@@H](CC(C)C)C(=O)O [Foxy-5, For-Met-Asp-Gly-Cys-Glu-Leu-OH] (For-MDGCEL-OH)?
A: pKa ([3]; ASP carboxylic (acidic)): 3.98; pKa ([3]; CYS thiol (acidic)): 9.01; pKa ([3]; GLU carboxylic (acidic)): 4.79; pKa ([3]; terminal carboxylic (acidic)): 3.39; dimer formation [4]: 2.5%; DS concentration applicable in alternative lyophilization process ([5]; aqueous 30% acetonitrile solution as solvent): up to 7 g/L; aqueous solubility ([5]; free Foxy-5 hexapeptide, for comparison, listed as free Foxy-5 peptide): 3 mg/mL (≈ 4.32 mM); solubility ([5]; free Foxy-5 hexapeptide, for comparison, read-out: aqueous solubility): ~3000 µg/mL (≈ 4.32 mM); solubility ([5]; read-out: product concentration for the final lyophilization, limited by solubility of salt free drug substance in water): 3000 µg/mL
